Data on 48 molecules can be found in the OPERA property sets (Mansouri et al. 2018).

SMILES strings stand for the structures.

Details in the first series: not given
The term melting point denotes the temperature, or range, at which the solid turns liquid. As to `NS(=O)(=O)c1ccc(N2CCCCS2(=O)=O)cc1`, the melting point worked out at 181 °C.

Molecule `C[C@]12CCc3c(ccc4cc(O)ccc34)[C@@H]1CCC2=O` gave a melting point of 258 °C.

The boiling point is the temperature of boiling at a given pressure. Take `CCCCC(=O)OC`: the boiling point is 127 °C, the log10 Henry constant (atm·m³/mol) was -3.5 and the log10 vapour pressure (mmHg) amounted to 1.28.

Consider `CC(C)=C(C)Cl`, for which the boiling point is 96 °C.

On to `C=CCc1ccc(OC)c(OC)c1`, for which the boiling point turned out to be 263 °C, the log10 vapour pressure (mmHg) was -1.92 and the ready biodegradability result is “readily biodegradable”.

`CCOC(CCl)OCC` displayed a boiling point of 157 °C.

Turning to `CCCC=CC(C)C`, the boiling point amounted to 112 °C and the melting point is -108 °C.

For `C[C@@H](O)C(C)(C)O`, the boiling point is 175 °C.

The molecule `CCCC=NO` displayed a boiling point of 154 °C and a melting point of -29.5 °C.

With `CCC(C)(C)CO`, the boiling point came out at 136 °C.

In turn, `c1ccc(C2CCCCC2)cc1` gave a boiling point of 240 °C, a log10 vapour pressure (mmHg) of -1.4 and a melting point of 7.3 °C.

For `CC(Oc1ccc(Oc2ccc(Cl)cc2Cl)cc1)C(=O)O` (stereo not given), the melting point is 120 °C.

For `CC(C)(C)OC(=O)CCl`, the boiling point stood at 150 °C.

Take `C=C(C)C(=O)OCCO`: the log10 vapour pressure (mmHg) was -0.9 and the ready biodegradability result is recorded as “readily biodegradable”.

As for `CCc1ccco1`, the boiling point came out at 92 °C.

`COc1cc(C=CC=O)ccc1O`: the melting point turned out to be 84 °C.

As to `Cc1cccc(C(=O)N(NC(=O)c2ccccc2)C(C)(C)C)c1`, the melting point turned out to be 211 °C.

Turning to `N#Cc1cccc(Br)c1`, the boiling point stood at 225 °C.

With `O=P(OCCCl)(OCCCl)OCCCl`, the boiling point is 330 °C, the log10 vapour pressure (mmHg) is -1.21, the melting point is -35 °C and the ready biodegradability entry was “not readily biodegradable”.

`CN(C)N`: the boiling point stood at 63.9 °C, the log10 vapour pressure (mmHg) was determined as 2.21, the melting point was -58 °C and the ready biodegradability result is reported as “not readily biodegradable”.

In turn, `O=C(O)c1cc(-c2ccccc2)nc2ccccc12` came in with a melting point of 214 °C.

The molecule `COC(=O)C1(S(=O)(=O)c2ccc(Cl)cc2)CCC1` yielded a melting point of 76.2 °C.

For `Oc1ccccc1O`, the boiling point stood at 246 °C, the log10 vapour pressure (mmHg) was -2.44, the melting point turned out to be 105 °C and the ready biodegradability entry was “readily biodegradable”.

Consider `COc1cc(C[C@H]2c3cc(OC)c(OC)cc3CCN2C)c(Oc2cc3c(cc2OC)-c2c(OC)c(OC)cc4c2[C@H](C3)N(C)CC4)cc1OC`, for which the melting point was 160 °C.

A word on the logP: it is a log measure of how a compound divides between an organic and an aqueous phase. As to `Clc1cc(Cl)c(-c2cc(Cl)c(Cl)c(Cl)c2Cl)cc1Cl`, the log10 Henry constant (atm·m³/mol) was -5, the log10 Koa came to 9.88, the log10 vapour pressure (mmHg) is -6.01 and the logP worked out at 7.72.

Molecule `CN(C)C(=O)Nc1cccc(Cl)c1` came in with a log10 Koc (L/kg) of 1.79.

For `CC(C)SC(C)C`, the boiling point came out at 120 °C, the log10 Henry constant (atm·m³/mol) was -2.48, the log10 vapour pressure (mmHg) worked out at 1.28 and the melting point is -78.1 °C.

As to `CCCCCCCCCCCCCCBr`, the boiling point was 307 °C, the log10 vapour pressure (mmHg) is -3.35 and the melting point came to 5.6 °C.

Molecule `CC(CC1CCCCC1)CC1CCCCC1` came in with a boiling point of 295 °C and a melting point of 0.6 °C.

As to `Cc1cccc2cc3ccccc3cc12`, the melting point came out at 85.5 °C.

Regarding `CC(C)Cc1ccccc1`, the log10 biodegradation half-life (days) is 1.

Consider `ClC(c1ccccc1)c1ccccc1`, for which the melting point is 16 °C.

With `O=c1ccocc1`, the boiling point worked out at 212 °C and the melting point worked out at 32.5 °C.

Molecule `FC(F)(Cl)Cl` showed a boiling point of -29.8 °C, a log10 Henry constant (atm·m³/mol) of -0.465, a log10 vapour pressure (mmHg) of 3.69 and a melting point of -158 °C. Also, the ready biodegradability entry is recorded as “not readily biodegradable”.

In turn, `CCCCCCC(O)CCCC` (stereo not given) came in with a boiling point of 229 °C and a melting point of -3.5 °C.

`CCN(CC)CCSC(=O)N(c1ccccc1)c1ccccc1` returned a melting point of 48.5 °C.

`C=CC(C)(C)C(=O)O`: the boiling point amounted to 185 °C and the melting point is -6 °C.

`CC=C(Cl)CCl` showed a boiling point of 130 °C.

Regarding `CC(CC=O)CCCC(C)(C)O` (stereo not given), the boiling point was 241 °C.

`c1ccc(CN(Cc2ccccc2)Cc2ccccc2)cc1` gave a boiling point of 385 °C and a melting point of 91.5 °C.

With `CCC(C(=O)OC)c1ccccc1` (stereo not given), the boiling point was 228 °C and the melting point came out at 77.5 °C.

The series is the same for the next values; noted with them: fish.
Turning to `O=C1c2ccccc2C(=O)c2c(Cl)cccc21`, the log10 BCF was determined as 2.3 and the log10 biotransformation half-life (days) was -0.23.

`Clc1cc(Cl)c(Cl)c(-c2c(Cl)c(Cl)c(Cl)c(Cl)c2Cl)c1Cl`: the log10 biotransformation half-life (days) is 2.63.

Consider `ClC(Cl)=C(Cl)C(Cl)=C(Cl)Cl`, for which the log10 BCF was 3.82 and the log10 biotransformation half-life (days) worked out at 2.07.

As to `C[Si]1(C)O[Si](C)(C)O[Si](C)(C)O[Si](C)(C)O[Si](C)(C)O[Si](C)(C)O[Si](C)(C)O1`, the log10 biotransformation half-life (days) was 1.48.

Consider `CCCCC(CC)COC(=O)CC(C(=O)OCC(CC)CCCC)S(=O)(=O)O` (stereo not given), for which the log10 BCF was 0.97.

With `OC(C(F)(F)F)C(F)(F)F`, the log10 BCF worked out at 0.4 and the log10 biotransformation half-life (days) is -1.32.

`C[Si]1(C)O[Si](C)(C)O[Si](C)(C)O[Si](C)(C)O1` gave a log10 biotransformation half-life (days) of 1.88.

Take `O=P(OCCCl)(OCCCl)OCCCl`: the log10 BCF came to 0.11 and the log10 biotransformation half-life (days) is -0.66.

`FC(F)(Cl)Cl` yielded a log10 BCF of 0.79.
